# From patent US8895753B2, “S1P receptor modulating agent” (Meiji Seika Pharma Co., Ltd., priority 2011, dated 2014)
# Test system: electrocardiogram / monophasic action potential (MAP)
# Experiment: Evaluation of cardiovascular system in a guinea pig
# Assay type: in vivo
# Details: anesthetized guinea pig, 0.1 mg/kg body weight, infusion
# Description: Under anesthesia with 0.5 to 1% of halothane, to a male Hartley guinea-pig (Japan SLC, Inc.) that had been reared for more than one week, a catheter for administration of a drug solution was placed into the left jugular vein, a monophasic action potential (MAP) measurement/pacing catheter was placed into the endothelial lining of the right ventricle, a catheter for measuring blood pressure was placed into the left carotid artery, and the measurement of body surface electrocardiogram (lead II) was conducted. The drug solution was infused for 10 minutes and the measurement was carried out over 60 minutes. Also, 5, 10, 15, 20, 30, 45 and 60 minutes after the administration of the drug solution, pacing was performed (200, 240, 300 bpm), and monophasic action potential (MAP) was measured.
smiles,measurement,value
"CC(C)Oc1ccc(-c2cnc(-c3ccc(CN4CC(C(=O)O)C4)cc3)s2)cc1 [Example 2, 1-(4-(5-(4-isopropoxyphenyl)thiazol-2-yl)benzyl)azetidine-3-carboxylic acid]",MAP90 prolongation effect,not observed
same,prolonged QT,not observed
